“And” between values parts separate entries of the source, which are not always exact repeats. Identical values can stand only once.
Columns and labels:
[1] = tested on: locomotor hyperactivity induced by cocaine and morphine; test: Locomotor hyperactivity (hypermotility) induced by cocaine and morphine, Videotrack total distance; assay type: in vivo, rats; details: for effect on the spontaneous motility of the animal: alone, neboglamine 30 mg/kg, glycine 300 mg/kg i.p.
Experimental: The motor activity was measured with a video camera and recorded using the Videotrack 512 system as described by Garofalo (J. Pharm. Pharmacol. 48: 1290-1297, 1996).
The locomotor activity was recorded for 15 minutes and the total distance covered (in cm) by the animal was recorded by the computer connected to the video camera.

[2] = tested on: inverse tolerance induced by chronic treatment with morphine; test: Inverse tolerance (increased sensitivity) induced by chronic treatment with morphine, locomotor activity
[3] = tested on: tolerance and abstinence crisis induced by chronic treatment with diazepam; test: Elevated zero maze: tolerance and abstinence crisis induced by chronic treatment with diazepam; assay type: in vivo, rats
Experimental: The experiment was performed in an elevated zero maze in accordance with the procedure described by Shepard et al. (Psychopharmacology 116: 56-64, 1994) with minor changes.
The rat, placed in one of the closed quadrants, had free access to all 4 of the quadrants (2 open and 2 closed) for a period of 5 minutes. A compound with anxiolytic activity produces a percentage increase in the time spent in the free quadrants.
In the acute studies, the compounds were administered via the s.c. route 30 minutes before the experiment, whereas in the tolerance and “withdrawal” experiments, they were administered via the s.c. route twice a day for 7 days and then retested 40 hours after the end of the chronic treatment.

[4] = tested on: locomotor hyperactivity, tolerance and dependency induced by morphine; details: mice; Shin et al. 2003; cited from earlier work
memory and learning = details: various animal models; Garofalo et al. 1996; cited from earlier work
[5] = substance alone with physiological saline, neboglamine 30 or glycine 300 mg/kg i.p., cocaine 20 or morphine 10 mg/kg s.c., recorded 15 min
[6] = chronic morphine 10 mg/kg s.c. x 7 days
[7] = acute, s.c. 30 min before, diazepam 5 mg/kg, neboglamine 30 mg/kg
[8] = acute, s.c. 30 min before, diazepam 5 mg/kg, neboglamine 30 mg/kg, 5 min test
[9] = withdrawal (D-W): diazepam for 7 days, retested 40 hours later with physiological saline
[10] = drug = morphine 10 mg/kg s.c., neboglamine 30 or glycine 300 mg/kg i.p. 30 min before
[11] = neboglamine 30 or glycine 300 mg/kg i.p. 30 min before morphine 10 mg/kg s.c.
[12] = neboglamine 30 or glycine 300 mg/kg i.p. 30 min before morphine 10 mg/kg s.c., recorded 15 min
[13] = neboglamine 30 mg/kg s.c. x 2 (x7 days) + 30 co-administered with chronic diazepam (D-C) + 5 (D), tolerance
[14] = withdrawal: diazepam and neboglamine for 7 days, retested 40 hours later with physiological saline
[15] = neboglamine 30 mg/kg i.p. 30 min before morphine 10 mg/kg s.c., x 7 days

Compound: COC(=O)[C@H]1[C@@H](OC(=O)c2ccccc2)C[C@@H]2CC[C@H]1N2C [Cocaine, cocaine, reference compound]
- % increase vs. physiological saline [1, 5]: 75.7%
- Total distance (cm) [1, 5]: 5800 cm

Compound: CN1CC[C@]23c4c5ccc(O)c4O[C@H]2[C@@H](O)C=C[C@H]3[C@H]1C5 [Morphine, morphine, reference compound]
- % increase vs. physiological saline [1, 5]: 60.6%
- Total distance (cm) [1, 5]: 5300 cm
- % increase vs. physiological saline [2, 6]: 128.6%
- Total distance (cm) [2, 6]: 6400 cm
- increase in the motor activity by chronic treatment compared with the acute effect of the drug ([2]; chronic vs acute morphine 10 mg/kg s.c.): about 50%

Compound: CN1C(=O)CN=C(c2ccccc2)c2cc(Cl)ccc21 [diazepam, reference compound]
- % effect vs. controls (saline) [3, 7]: 262.5%
- Time (seconds) spent in the open quadrants [3, 8]: 105 s
- Time (seconds) spent in the open quadrants ([3]; chronic diazepam (D-C) 5 mg/kg s.c. x 2 (x7 days) + 5 (D), tolerance): 58 s
- % effect vs. controls (saline) ([3]; chronic diazepam (D-C) 5 mg/kg s.c. x 2 (x7 days) + 5 (D), tolerance, 5 mg/kg): 145%
- % effect vs. controls (saline) [3, 9]: 37.5%
- Time (seconds) spent in the open quadrants [3, 9]: 15 s

Compound: NCC(=O)O [Glycine, glycine, reference compound]
- effect on the spontaneous motility of the animal [1]: do not significantly alter
- % inhibition vs. the drug (D) [1, 10]: 52.5%
- % inhibition vs. the drug (D) ([1]; drug = morphine 10 mg/kg s.c., neboglamine 30 or glycine 300 mg/kg i.p. 30 min before, listed as G): 52.5^(2) %
- % increase vs. physiological saline [1, 11]: 28.8%
- Total distance (cm) [1, 12]: 4250 cm
- Total distance (cm) [1, 5]: 2900 cm
- inhibition of morphine-induced locomotor hyperactivity, tolerance and dependency [4]: capable of inhibiting the locomotor hyperactivity, tolerance and dependency induced by morphine

Compound: (S)-4-amino-N-(4,4-dimethylcyclohexyl)glutamic acid [Neboglamine]
- % increase vs. physiological saline ([1]; 30 mg/kg i.p. 30 min before cocaine 20 mg/kg s.c.): 9.1%
- Total distance (cm) ([1]; 30 mg/kg i.p. 30 min before cocaine 20 mg/kg s.c., recorded 15 min): 3600 cm
- effect on the spontaneous motility of the animal [1]: do not significantly alter
- % inhibition vs. the drug (D) ([1]; drug = cocaine 20 mg/kg s.c., 30 mg/kg i.p. 30 min before): 88%
- % inhibition vs. the drug (D) ([1]; drug = cocaine 20 mg/kg s.c., 30 mg/kg i.p. 30 min before, listed as N): 88.0^(1) %
- % inhibition vs. the drug (D) [1, 10]: 77.5%
- % inhibition vs. the drug (D) ([1]; drug = morphine 10 mg/kg s.c., neboglamine 30 or glycine 300 mg/kg i.p. 30 min before, listed as N): 77.5^(1) %
- % increase vs. physiological saline [1, 11]: 13.6%
- Total distance (cm) [1, 12]: 3750 cm
- Total distance (cm) [1, 5]: 3150 cm
- % effect vs. controls (saline) [3, 7]: 127%
- Time (seconds) spent in the open quadrants [3, 8]: 51 s
- % effect vs. controls (saline) ([3]; acute, s.c. 30 min before, diazepam 5 mg/kg, neboglamine 30 mg/kg, listed as neboglamine): 127.0%
- % effect vs. controls (saline) [3, 13]: 192.5%
- Time (seconds) spent in the open quadrants [3, 13]: 77 s
- % effect vs. controls (saline) [3, 14]: 110.0%
- Time (seconds) spent in the open quadrants [3, 14]: 44 s
- % effect vs. controls (saline) ([3]; withdrawal: diazepam and neboglamine for 7 days, retested 40 hours later with physiological saline, listed as neboglamine): 110%
- promoting memory and learning (memory and learning): advantageous properties of promoting memory and learning
- % increase vs. physiological saline [2, 15]: 37.5%
- % inhibition of the hypersensitivity of morphine [2, 15]: 70.8% and 70.8^(1) %
- Total distance (cm) [2, 15]: 3850 cm

Source: US20100197962A1 (priority 2005, published 2010)
